Assay results reported in US11969490B2, “Hair conditioning composition with antimicrobial system” (The Procter & Gamble Company, priority 2020, dated 2024).

Test: Rheology Test Method (shear stress at 950 s^−1 via flow curve)
Format: physicochemical
Protocol: 2. Rheology Test Method Rheology is used to evaluate and characterise product samples. The two key rheology methods identified are mentioned below: • Shear Stress at 950 s^−1 via flow curve: This is the method to ramp up shear rate logarithmically from 0.1 to 1000 s^−1 in 1 min using a cone & plate geometry, and to read the shear stress value 6 (Pa) at shear rate 950 s^−1. • Delta in Rheology %: This is the percentage difference in rheology measurement following the formula below: Delta in Rheology %=((a−b)/b)×100% • where a is the post added product and b is the no post added product. If rheology reduction is more than 50%, it would indicate significant interaction with chassis and incompatible.

Compound	rheology reduction / compatibility with formulation, in words
CC(=O)c1ccc(O)cc1 [4-Hydroxyacetophenone]	no significant rheology reduction
CCCCCCCC(=O)OCC(O)CO (stereo not shown) [Glyceryl caprylate]	no significant rheology reduction
O=C([O-])c1ccccc1.[Na+] [Sodium benzoate, reference compound]	significant rheology reduction
Pentylene Glycol	no significant rheology reduction
